In patent US20250163047A1, “HETEROCYCLIC COMPOUNDS, COMPOSITIONS THEREOF, AND METHODS OF TREATMENT THEREWITH” (BeiGene, Ltd., priority 2022, published 2025):
pIC50: −log10 of the molar value.

Experiments:
[1] = target: T1, Cbl-b (aa36-427) (Homo sapiens, UniProt Q13191); experiment: Co-expressed Cbl-b with BirA biochemical assay (CBLB/E2-Ub binding, HTRF); conditions: 0.6 nM Cbl-b co-expressed with BirA, HTRF; read-out: co-express CBLB/E2-Ub-binding assay IC50
T1 construct: Cbl-b (aa36-427, in-house); made in house
Excerpt: (§1) The assay in the absence of a Cbl-b/Cbl inhibitor, where phosphorylation of Cbl-b/Cbl by the Src kinase allows UbcH5B-Ub to bind to Cbl-b/Cbl and brings the Bodipy-Fluorescein tagged ubiquitin in proximity to the streptavidin-terbium bound to the N-terminal biotinylated Avi-tagged Cbl-b/Cbl. […] The lack of a FRET signal indicates Cbl-b/Cbl is inhibited by the Cbl-b/Cbl inhibitor.

[2] = target: T2, Cbl (aa49-434) (Homo sapiens, UniProt P22681); experiment: Co-expressed Cbl with BirA biochemical assay (CBL/E2-Ub binding, HTRF); conditions: 0.6 nM Cbl co-expressed with BirA, read-out: co-express CBL/E2-Ub-binding assay IC50
T2 construct: Cbl (aa49-434, in-house); made in house
T2 sequence (P22681 49-434): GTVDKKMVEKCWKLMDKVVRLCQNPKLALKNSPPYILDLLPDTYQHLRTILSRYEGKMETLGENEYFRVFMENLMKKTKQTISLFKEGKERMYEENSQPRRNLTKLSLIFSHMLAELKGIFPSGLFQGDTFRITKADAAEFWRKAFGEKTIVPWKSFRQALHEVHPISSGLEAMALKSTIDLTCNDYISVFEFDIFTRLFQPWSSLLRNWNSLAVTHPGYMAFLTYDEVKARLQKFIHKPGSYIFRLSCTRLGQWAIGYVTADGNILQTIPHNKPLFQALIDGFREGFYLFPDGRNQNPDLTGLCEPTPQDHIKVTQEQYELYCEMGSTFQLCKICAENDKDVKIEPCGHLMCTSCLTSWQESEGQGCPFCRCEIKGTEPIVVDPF
Excerpt: as §1

T1 sequence (Q13191 36-427): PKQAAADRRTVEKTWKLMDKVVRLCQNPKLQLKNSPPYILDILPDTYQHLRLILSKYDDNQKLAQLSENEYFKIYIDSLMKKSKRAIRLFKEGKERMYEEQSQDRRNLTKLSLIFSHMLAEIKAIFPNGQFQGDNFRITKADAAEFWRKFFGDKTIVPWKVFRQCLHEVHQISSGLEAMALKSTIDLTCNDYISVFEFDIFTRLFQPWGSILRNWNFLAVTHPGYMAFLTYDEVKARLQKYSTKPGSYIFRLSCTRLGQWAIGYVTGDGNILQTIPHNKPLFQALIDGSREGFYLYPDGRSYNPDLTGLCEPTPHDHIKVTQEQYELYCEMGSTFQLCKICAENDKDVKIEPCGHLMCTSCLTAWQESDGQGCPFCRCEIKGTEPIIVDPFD

Row | pIC50 [1] | pIC50 [2] | Structure (SMILES)
1 | 9.30 | 8.96 | Cc1cnc2c(C(=O)Nc3cccc([C@]4(c5nncn5C)C[C@@H](C)C4)c3)cc(CN[C@@H](C)C3CCC3)cn12 [Compound A60, 6-((((S)-1-cyclobutylethyl)amino)methyl)-3-methyl-N-(3-((1s,3R)-3-methyl-1-(4-methyl-4H-1,2,4-triazol-3-yl)cyclobutyl)phenyl)imidazo[1,2-a]pyridine-8-carboxamide]
2 | 8.96 | 8.22 | CC(C)CNCc1cc(C(=O)Nc2cccc([C@]3(c4nncn4C)C[C@@H](C)C3)c2)c2nccn2c1 [Compound A18, 6-((isobutylamino)methyl)-N-(3-((1s, 3s)-3-methyl-1-(4-methyl-4H-1,2,4-triazol-3-yl)cyclobutyl)phenyl)imidazo[1,2-a]pyridine-8-carboxamide]
3 | 9.05 | 8.96 | C[C@H](NCc1cc(C(=O)Nc2cncc([C@]3(c4nncn4C)C[C@@H](C)C3)c2)c2ncc(F)n2c1)C1CCC1 [Compound A50, 6-({[(1S)-1-cyclobutylethyl]amino}methyl)-3-fluoro-N-{5-[(1r, 3s)-3-methyl-1-(4-methyl-1,2,4-triazol-3-yl)cyclobutyl]pyridin-3-yl}imidazo[1,2-a]pyridine-8-carboxamide]
4 | 8.57 | 7.85 | Cn1cnnc1[C@]1(c2cccc(NC(=O)c3cc(CNC4(C)CCC4)cn4ccnc34)c2)C[C@H](C)C1 [Compound A39, N-(3-((1s, 3s)-3-methyl-1-(4-methyl-4H-1,2,4-triazol-3-yl)cyclobutyl)phenyl)-6-(((1-methylcyclobutyl)amino)methyl)imidazo[1,2-a]pyridine-8-carboxamide]
5 | 8.96 | 8.44 | Cn1cnnc1[C@]1(c2cccc(NC(=O)c3cc(CNCC4CCC4)cn4ccnc34)c2)C[C@H](C)C1 [Compound A22, 6-(((cyclobutylmethyl)amino)methyl)-N-(3-((1s, 3s)-3-methyl-1-(4-methyl-4H-1,2,4-triazol-3-yl)cyclobutyl)phenyl)imidazo[1,2-a]pyridine-8-carboxamide]
6 | 8.77 | 7.35 | Cn1cnnc1[C@]1(c2cccc(NC(=O)c3cc(CNC4(C)CC4)cn4ncnc34)c2)C[C@H](CC#N)C1 [Compound A89, N-(3-((1s, 3s)-3-(cyanomethyl)-1-(4-methyl-4H-1,2,4-triazol-3-yl)cyclobutyl)phenyl)-6-(((1-methylcyclopropyl)amino)methyl)-[1,2,4]triazolo[1,5-a]pyridine-8-carboxamide]
7 | 8.85 | 8.48 | Cn1cnnc1[C@]1(c2cccc(NC(=O)c3cc(CNCC4CCC4)c4c(n3)C(C)(C)CN4)c2)C[C@H](CC#N)C1 [Compound C30, N-(3-((1s, 3s)-3-(cyanomethyl)-1-(4-methyl-4H-1,2,4-triazol-3-yl)cyclobutyl)phenyl)-7-(((cyclobutylmethyl)amino)methyl)-3,3-dimethyl-2,3-dihydro-1H-pyrrolo[3,2-b]pyridine-5-carboxamide]
8 | 8.68 | 8.33 | C[C@H](NCc1cc(C(=O)Nc2cncc([C@]3(c4nncn4C)C[C@@H](C)C3)c2)nc2sccc12)C1CCC1 [Compound B42, 4-({[(1S)-1-cyclobutylethyl]amino}methyl)-N-{5-[(1r, 3s)-3-methyl-1-(4-methyl-1,2,4-triazol-3-yl)cyclobutyl]pyridin-3-yl}thieno[2,3-b]pyridine-6-carboxamide]
9 | 9.00 | 8.74 | C[C@H]1CCCN(Cc2cc(C(=O)Nc3cccc([C@]4(Cc5nncn5C)C[C@@H](C#N)C4)c3)nc3c2CCC3(C)C)C1 [Compound C8, N-(3-((1r,3S)-3-cyano-1-((4-methyl-4H-1,2,4-triazol-3-yl)methyl)cyclobutyl)phenyl)-7,7-dimethyl-4-(((S)-3-methylpiperidin-1-yl)methyl)-6,7-dihydro-5H-cyclopenta[b]pyridine-2-carboxamide]
10 | 9.05 | 8.33 | Cn1cnnc1[C@]1(c2cccc(NC(=O)c3cc(CN[C@H]4C[C@@H](C)C4)c4[nH]ccc4n3)c2)C[C@H](C)C1 [Compound B33, N-(3-((1s, 3s)-3-methyl-1-(4-methyl-4H-1,2,4-triazol-3-yl)cyclobutyl)phenyl)-7-((((1s, 3s)-3-methylcyclobutyl)amino)methyl)-1H-pyrrolo[3,2-b]pyridine-5-carboxamide]
11 | 9.10 | 8.64 | Cn1cnnc1[C@]1(c2cccc(NC(=O)c3cc(CNCC4CCC4)c4ccsc4n3)c2)C[C@H](C)C1 [Compound B41, 4-{[(cyclobutylmethyl)amino]methyl}-N-{3-[(1r, 3s)-3-methyl-1-(4-methyl-1,2,4-triazol-3-yl)cyclobutyl]phenyl}thieno[2,3-b]pyridine-6-carboxamide]
12 | 8.77 | 8.09 | C[C@H](NCc1cc(C(=O)Nc2cccc([C@]3(c4nncn4C)C[C@@H](C)C3)c2)c2ncc(F)n2c1)C1CC1 [Compound A19, 6-((((S)-1-cyclopropylethyl)amino)methyl)-3-fluoro-N-(3-((1s,3R)-3-methyl-1-(4-methyl-4H-1,2,4-triazol-3-yl)cyclobutyl)phenyl)imidazo[1,2-a]pyridine-8-carboxamide]
13 | 9.40 | 8.60 | Cn1cnnc1[C@]1(c2cccc(NC(=O)c3cc(CNC4(C)CC4)cc4c(F)cnn34)c2)C[C@H](C)C1 [Compound A92, 3-fluoro-N-(3-((1s, 3s)-3-methyl-1-(4-methyl-4H-1,2,4-triazol-3-yl)cyclobutyl)phenyl)-5-(((1-methylcyclopropyl)amino)methyl)pyrazolo[1,5-a]pyridine-7-carboxamide]
14 | 8.74 | 8.11 | Cn1cnnc1[C@]1(c2cccc(NC(=O)c3cc(CNC4(C)CCC4)cn4c(F)cnc34)c2)C[C@H](C)C1 [Compound A44, 3-fluoro-N-(3-((1s, 3s)-3-methyl-1-(4-methyl-4H-1,2,4-triazol-3-yl)cyclobutyl)phenyl)-6-(((1-methylcyclobutyl)amino)methyl)imidazo[1,2-a]pyridine-8-carboxamide]
15 | 7.87 | 7.05 | C[C@H]1CCCN(Cc2cc(C(=O)Nc3cccc([C@]4(c5nncn5C)C[C@@H](CC#N)C4)c3)nn3cccc23)C1 [Compound B14, 4-{[(3S)-3-methylpiperidin-1-yl]methyl}-N-{3-[(1s, 3s)-3-(cyanomethyl)-1-(4-methyl-1,2,4-triazol-3-yl)cyclobutyl]phenyl}pyrrolo[1,2-b]pyridazine-2-carboxamide]
16 | 8.96 | 8.31 | Cn1cnnc1[C@]1(c2cccc(NC(=O)c3cc(CNCC(C)(C)C)cn4ccnc34)c2)C[C@H](CC#N)C1 [Compound A32, N-(3-((1s, 3s)-3-(cyanomethyl)-1-(4-methyl-4H-1,2,4-triazol-3-yl)cyclobutyl)phenyl)-6-((neopentylamino)methyl)imidazo[1,2-a]pyridine-8-carboxamide]
17 | 8.89 | 7.85 | C[C@H]1CCCN(Cc2cc(C(=O)Nc3cccc([C@]4(c5nncn5C)C[C@@H](CC#N)C4)c3)nc3c(F)c[nH]c23)C1 [Compound B11, N-(3-((1s,3R)-3-(cyanomethyl)-1-(4-methyl-4H-1,2,4-triazol-3-yl)cyclobutyl)phenyl)-3-fluoro-7-(((S)-3-methylpiperidin-1-yl)methyl)-1H-pyrrolo[3,2-b]pyridine-5-carboxamide]
18 | 9.22 | 8.74 | Cn1cnnc1[C@]1(c2cccc(NC(=O)c3cc(CNCC4CCC4)cn4c(Cl)cnc34)c2)C[C@H](C)C1 [Compound A57, 3-chloro-6-(((cyclobutylmethyl)amino)methyl)-N-(3-((1s, 3s)-3-methyl-1-(4-methyl-4H-1,2,4-triazol-3-yl)cyclobutyl)phenyl)imidazo[1,2-a]pyridine-8-carboxamide]
19 | 8.85 | 8.89 | C[C@H]1CCCN(Cc2cc(C(=O)Nc3cccc([C@]4(Cc5nncn5C)C[C@@H](C#N)C4)c3)nc3c2NCC3(C)C)C1 [Compound C12, 3,3-dimethyl-7-{[(3S)-3-methylpiperidin-1-yl]methyl}-N-{3-[(1r, 3r)-3-cyano-1-[(4-methyl-1,2,4-triazol-3-yl)methyl]cyclobutyl]phenyl}-1H,2H-pyrrolo[3,2-b]pyridine-5-carboxamide]
20 | 8.85 | 8.51 | C[C@H]1CCCN(Cc2cc(C(=O)Nc3cccc([C@]4(Cc5nncn5C)C[C@H](C#N)C4)c3)nc3c2CCC3(C)C)C1 [Compound C18, N-(3-((1s,3R)-3-cyano-1-((4-methyl-4H-1,2,4-triazol-3-yl)methyl)cyclobutyl)phenyl)-7,7-dimethyl-4-(((S)-3-methylpiperidin-1-yl)methyl)-6,7-dihydro-5H-cyclopenta[b]pyridine-2-carboxamide]
21 | 8.22 | 7.73 | C[C@H]1CCCN(Cc2cc(C(=O)Nc3cccc([C@]4(c5nncn5C)C[C@@H](C)C4)c3)c3nc(F)cn3c2)C1 [Compound A8, 2-fluoro-N-(3-((1s,3R)-3-methyl-1-(4-methyl-4H-1,2,4-triazol-3-yl)cyclobutyl)phenyl)-6-(((S)-3-methylpiperidin-1-yl)methyl)imidazo[1,2-a]pyridine-8-carboxamide]
